Reference: patent US9260408B2, “Dihydroquinoline-2-one derivatives” (Hoffmann-La Roche Inc., priority 2011, dated 2016)
Structures can show the parent of a compound that is named as a salt.

What was measured:
human CYP11B1 = molecular target: T1, human CYP11B1 (Homo sapiens, UniProt P15538); experiment: G-402 cellular enzyme assay, human CYP11B1 (cortisol release, HTRF); format: cell-based; conditions: G-402 cells expressing human CYP11B1; 1 μM Deoxycortisol
T1 construct: expressed in transfected cells
T1 sequence (P15538 25-503): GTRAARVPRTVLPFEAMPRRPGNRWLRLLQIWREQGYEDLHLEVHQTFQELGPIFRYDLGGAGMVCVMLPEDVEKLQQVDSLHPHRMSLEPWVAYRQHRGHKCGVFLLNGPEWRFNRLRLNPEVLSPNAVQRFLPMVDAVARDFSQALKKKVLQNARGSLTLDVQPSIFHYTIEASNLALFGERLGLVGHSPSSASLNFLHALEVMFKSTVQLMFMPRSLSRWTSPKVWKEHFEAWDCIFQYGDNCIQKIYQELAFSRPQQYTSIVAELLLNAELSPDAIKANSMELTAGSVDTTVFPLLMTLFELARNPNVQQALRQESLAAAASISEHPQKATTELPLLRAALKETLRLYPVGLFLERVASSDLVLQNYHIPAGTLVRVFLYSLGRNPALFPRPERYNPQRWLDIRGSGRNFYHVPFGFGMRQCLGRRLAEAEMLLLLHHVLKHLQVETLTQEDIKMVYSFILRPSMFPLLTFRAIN
Method in brief: (§1)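 EC50 comes from least-squares fitting of a 4-parameter MMF curve to steroid product levels, measured by HTRF as aldosterone for CYP11B2 or cortisol for CYP11B1. Stably transfected G-402 host cells were given substrate (1 μM deoxycorticosterone or deoxycortisol, respectively) with inhibitor for 16 h in medium with 2.5% charcoal-treated FCS.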

human CYP11B2 = molecular target: T2, human CYP11B2 (Homo sapiens, UniProt P19099); experiment: G-402 cellular enzyme assay, human CYP11B2 (aldosterone release, HTRF); format: cell-based; conditions: G-402 cells expressing human CYP11B2; 1 μM Deoxycorticosterone
T2 construct: expressed in transfected cells
T2 sequence (P19099 25-503): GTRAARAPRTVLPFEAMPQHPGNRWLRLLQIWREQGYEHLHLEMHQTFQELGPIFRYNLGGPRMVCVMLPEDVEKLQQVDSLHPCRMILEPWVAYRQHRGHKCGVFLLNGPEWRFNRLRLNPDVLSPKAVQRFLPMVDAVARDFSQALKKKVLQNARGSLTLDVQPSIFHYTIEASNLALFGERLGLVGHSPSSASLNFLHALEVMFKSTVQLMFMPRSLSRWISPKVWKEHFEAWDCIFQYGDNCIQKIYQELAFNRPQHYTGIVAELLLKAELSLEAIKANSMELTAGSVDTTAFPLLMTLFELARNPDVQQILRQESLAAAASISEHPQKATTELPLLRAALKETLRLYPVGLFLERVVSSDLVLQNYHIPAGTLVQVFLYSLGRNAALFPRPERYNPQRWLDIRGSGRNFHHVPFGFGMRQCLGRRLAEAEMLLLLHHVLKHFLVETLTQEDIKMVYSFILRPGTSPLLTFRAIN
Method in brief: as §1

| SMILES | EC50 (human CYP11B1) | EC50 (human CYP11B2) |
| --- | --- | --- |
| CN1C(=O)CCc2cc(-c3cncc(C4=CN(C(=O)OC(C)(C)C)CCC4)c3)ccc21 [Example 231, 5′-(1-Methyl-2-oxo-1,2,3,4-tetrahydro-quinolin-6-yl)-5,6-dihydro-4H-[3,3′]bipyridinyl-1-carboxylic acid tert-butyl ester] | 0.802 µM | 0.019 µM |
| CCS(=O)(=O)NC1(c2cncc(-c3cc4c(cc3F)N(C)C(=O)CC4)c2)CC1 [Example 171, Ethanesulfonic acid {1-[5-(7-fluoro-1-methyl-2-oxo-1,2,3,4-tetrahydro-quinolin-6-yl)-pyridin-3-yl]-cyclopropyl}-amide] | 0.42 µM | 0.009 µM |
| O=C(NCc1cncc(-c2cc3c4c(c2)CCN4C(=O)CC3)c1)c1ncccc1Cl [Example 236, 3-Chloro-pyridine-2-carboxylic acid [5-(4-oxo-1,2,5,6-tetrahydro-4H-pyrrolo[3,2,1-ij]quinolin-8-yl)-pyridin-3-ylmethyl]-amide] | 0.077 µM | 0.003 µM |
| CCS(=O)(=O)NCc1cncc(-c2cc3c(cc2F)N(C)C(=O)CC3)c1C [Example 192, Ethanesulfonic acid [5-(7-fluoro-1-methyl-2-oxo-1,2,3,4-tetrahydro-quinolin-6-yl)-4-methyl-pyridin-3-ylmethyl]-amide] | 1.98 µM | 0.029 µM |
| CN1C(=O)CCc2cc(-c3cncc(CNS(=O)(=O)c4ccc(Cl)nc4)c3)ccc21 [Example 158, 6-Chloro-pyridine-3-sulfonic acid [5-(1-methyl-2-oxo-1,2,3,4-tetrahydro-quinolin-6-yl)-pyridin-3-ylmethyl]-amide] | 6.43 µM | 0.239 µM |
| CN1C(=O)CCc2cc(-c3cncc(CNC(=O)C4CC4)c3)ccc21 [Example 41, Cyclopropanecarboxylic acid [5-(1-methyl-2-oxo-1,2,3,4-tetrahydro-quinolin-6-yl)-pyridin-3-ylmethyl]-amide] | 5.56 µM | 0.067 µM |
| CCC(NS(=O)(=O)CC)c1cncc(-c2ccc3c(c2)CCC(=O)N3C)c1 (racemic) [Example 180, (rac)-Ethanesulfonic acid {1-[5-(1-methyl-2-oxo-1,2,3,4-tetrahydro-quinolin-6-yl)-pyridin-3-yl]-propyl}-amide] | 1.89 µM | 0.033 µM |
| CN1C(=O)CCc2cc(-c3cncc(OCCN)c3)ccc21 [Example 42, 6-[5-(2-amino-ethoxy)-pyridin-3-yl]-1-methyl-3,4-dihydro-1H-quinolin-2-one hydrochloride] | 0.16 µM | 0.028 µM |
| CN1C(=O)CCc2cc(-c3cncc(CNS(=O)(=O)c4cccc(Cl)c4)c3)ccc21 [Example 152, 3-Chloro-N-[5-(1-methyl-2-oxo-1,2,3,4-tetrahydro-quinolin-6-yl)-pyridin-3-ylmethyl]-benzenesulfonamide] | 4.75 µM | 0.154 µM |
| CN1C(=O)CCc2cc(-c3cncc(CN4CCCS4(=O)=O)c3)ccc21 [Example 179, 6-[5-(1,1-Dioxo-1λ^6-isothiazolidin-2-ylmethyl)-pyridin-3-yl]-1-methyl-3,4-dihydro-1H-quinolin-2-one] | 0.169 µM | 0.012 µM |
| CCS(=O)(=O)NC(c1cncc(-c2ccc3c(c2)CCC(=O)N3C)c1)C1CC1 (racemic) [Example 177, (rac)-Ethanesulfonic acid {cyclopropyl-[5-(1-methyl-2-oxo-1,2,3,4-tetrahydro-quinolin-6-yl)-pyridin-3-yl]-methyl}-amide] | 8.46 µM | 0.117 µM |
| CN1C(=O)CCc2cc(-c3cncc(CNS(=O)(=O)C(F)(F)F)c3)ccc21 [Example 163, C,C,C-Trifluoro-N-[5-(1-methyl-2-oxo-1,2,3,4-tetrahydro-quinolin-6-yl)-pyridin-3-ylmethyl]-methanesulfonamide] | 2.39 µM | 0.061 µM |

Next, values leading:

| EC50 (human CYP11B1) | EC50 (human CYP11B2) | SMILES |
| --- | --- | --- |
| 13.1 µM | 0.315 µM | CC(N)c1cncc(-c2ccc3c(c2)CCC(=O)N3C)c1 (single isomer, unassigned) [Example 65, 6-[5-((R or S)-1-amino-ethyl)-pyridin-3-yl]-1-methyl-3,4-dihydro-1H-quinolin-2-one hydrochloride] |
| 1.78 µM | 0.017 µM | CN1C(=O)CCc2cc(-c3cncc(CNC(=O)c4cc(Cl)nnc4Cl)c3)ccc21 [Example 95] |
| 0.834 µM | 0.041 µM | CCC(=O)NC(C)c1cncc(-c2cc3c(cc2F)N(C)C(=O)CC3)c1 (racemic) [Example 213, (rac)-N-{1-[5-(7-Fluoro-1-methyl-2-oxo-1,2,3,4-tetrahydro-quinolin-6-yl)-pyridin-3-yl]-ethyl}-propionamide] |
| 4.03 µM | 0.097 µM | Cc1noc(C)c1C(=O)NCc1cncc(-c2cc(Cl)c3c(c2)CCC(=O)N3)c1 [Example 205, 3,5-Dimethyl-isoxazole-4-carboxylic acid [5-(8-chloro-2-oxo-1,2,3,4-tetrahydro-quinolin-6-yl)-pyridin-3-ylmethyl]-amide] |
| 0.679 µM | 0.022 µM | Cc1noc(C)c1C(=O)NC(C)c1cncc(-c2ccc3c(c2)CCC(=O)N3C)c1Cl (single isomer, unassigned) [Example 257, 3,5-Dimethyl-isoxazole-4-carboxylic acid {(R or S)-1-[4-chloro-5-(1-methyl-2-oxo-1,2,3,4-tetrahydro-quinolin-6-yl)-pyridin-3-yl]-ethyl}-amide] |
| 3.69 µM | 0.1 µM | Cc1noc(C)c1C(=O)NC(C)c1cncc(-c2ccc3c(c2)CCC(=O)N3C)c1C (single isomer, unassigned) [Example 242, 3,5-Dimethyl-isoxazole-4-carboxylic acid {(R or S)-1-[4-methyl-5-(1-methyl-2-oxo-1,2,3,4-tetrahydro-quinolin-6-yl)-pyridin-3-yl]-ethyl}-amide] |
| 0.006 µM | 0.001 µM | CC(NC(=O)c1ncccc1Cl)c1cncc(-c2ccc3c(c2)CCC(=O)N3C)c1Cl (single isomer, unassigned) [Example 251, 3-Chloro-pyridine-2-carboxylic acid {(R or S)-1-[4-chloro-5-(1-methyl-2-oxo-1,2,3,4-tetrahydro-quinolin-6-yl)-pyridin-3-yl]-ethyl}-amide] |
| 0.081 µM | 0.003 µM | CN1C(=O)CCc2cc(-c3cncc(CNC(=O)c4nc(Cl)ccc4Cl)c3)ccc21 [Example 116] |
| 1.11 µM | 0.032 µM | Cc1nc(C(=O)NCc2cncc(-c3ccc4c(c3)CCC(=O)N4C)c2)c(C(F)(F)F)o1 [Example 108] |
| 0.623 µM | 0.009 µM | CCC(=O)NCc1cncc(-c2ccc3c(c2)CCC(=O)N3C)c1Cl [Example 265, N-[4-Chloro-5-(1-methyl-2-oxo-1,2,3,4-tetrahydro-quinolin-6-yl)-pyridin-3-ylmethyl]-propionamide] |
| 0.111 µM | 0.006 µM | CN1C(=O)CCc2cc(-c3cncc(CNC(=O)c4ccccn4)c3)ccc21 [Example 97] |
| 0.094 µM | 0.003 µM | COc1nc(Cl)cnc1C(=O)NCc1cncc(-c2ccc3c(c2)CCC(=O)N3C)c1 [Example 134] |
| 0.121 µM | 0.008 µM | Cc1cccc(C(=O)NCc2cncc(-c3ccc4c(c3)CCC(=O)N4C)c2)n1 [Example 117] |
